Assay results published in BindingDB's records for doi:10.1021/jm980001q (G.D. Searle And, 1998).

Target: T1, Glycylpeptide N-tetradecanoyltransferase (Candida albicans (strain SC5314 / ATCC MYA-2876), UniProt P30418)
T1 sequence (P30418 whole entry): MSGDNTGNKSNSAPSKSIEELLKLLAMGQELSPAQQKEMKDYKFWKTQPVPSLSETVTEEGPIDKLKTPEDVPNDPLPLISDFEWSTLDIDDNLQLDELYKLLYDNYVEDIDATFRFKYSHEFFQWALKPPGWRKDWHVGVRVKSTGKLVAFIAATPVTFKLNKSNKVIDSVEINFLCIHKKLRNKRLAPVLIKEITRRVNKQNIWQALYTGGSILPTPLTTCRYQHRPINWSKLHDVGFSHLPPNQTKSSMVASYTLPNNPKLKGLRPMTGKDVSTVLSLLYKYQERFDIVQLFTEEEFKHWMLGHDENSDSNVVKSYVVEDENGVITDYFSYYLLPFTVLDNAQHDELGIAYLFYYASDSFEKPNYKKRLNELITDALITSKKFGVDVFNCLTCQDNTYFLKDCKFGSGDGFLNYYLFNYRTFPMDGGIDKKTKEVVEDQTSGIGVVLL
Assay: The Compound was tested for the inhibition potency against Candida albicans N-myristoyltransferase (NMT) and reported as apparent Ki

In the case of H-ALYASKLS-NH2, the Ki is reported as 15.3 µM.
